From patent US8946439B2, “Amide compounds, compositions and uses thereof” (Evotec AG, priority 2008, dated 2015)
Like-named read-outs stand apart in the source and are kept apart here.

Tests used:
hP2X2/3H = target: T1, hP2X2/3H (Homo sapiens, UniProt P56373+Q9UBL9); experiment: Calcium uptake assay (P2X antagonist assay), P2X2/3 heteromer; format: cell-based; details: hP2X2/3H
T1 construct: expressed in transfected cells; host or cells: e.g. HEK293 or 1321N1
T1 sequence (Q9UBL9 1-471): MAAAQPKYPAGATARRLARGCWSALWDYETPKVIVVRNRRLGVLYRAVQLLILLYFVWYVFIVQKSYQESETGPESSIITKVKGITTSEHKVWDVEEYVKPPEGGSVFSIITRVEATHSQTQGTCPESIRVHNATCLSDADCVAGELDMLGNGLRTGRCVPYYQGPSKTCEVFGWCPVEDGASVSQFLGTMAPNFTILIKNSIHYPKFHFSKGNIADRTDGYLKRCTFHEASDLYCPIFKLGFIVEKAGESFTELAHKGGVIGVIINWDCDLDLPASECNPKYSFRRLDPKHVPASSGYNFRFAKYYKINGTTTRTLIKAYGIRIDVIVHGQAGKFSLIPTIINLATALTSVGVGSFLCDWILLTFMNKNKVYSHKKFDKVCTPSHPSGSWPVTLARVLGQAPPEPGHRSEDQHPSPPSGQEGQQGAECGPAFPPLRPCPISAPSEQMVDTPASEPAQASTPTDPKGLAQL
T1 sequence (P56373 1-397): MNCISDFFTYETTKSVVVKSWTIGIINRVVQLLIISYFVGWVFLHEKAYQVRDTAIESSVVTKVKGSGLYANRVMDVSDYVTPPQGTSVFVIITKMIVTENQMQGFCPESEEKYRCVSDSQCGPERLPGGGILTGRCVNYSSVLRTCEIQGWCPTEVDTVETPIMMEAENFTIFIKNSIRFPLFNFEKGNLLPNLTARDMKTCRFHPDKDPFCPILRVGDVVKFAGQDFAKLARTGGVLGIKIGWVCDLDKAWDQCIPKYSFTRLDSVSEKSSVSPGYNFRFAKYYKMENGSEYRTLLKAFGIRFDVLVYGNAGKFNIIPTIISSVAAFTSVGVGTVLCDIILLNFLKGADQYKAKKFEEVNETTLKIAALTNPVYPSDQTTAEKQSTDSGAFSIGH
Outline: (§1)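 Stably or transiently transfected HEK293 or 1321N1 cells; the heteromer is made by adding P2X3 to a P2X2-stable line, with heteromer function isolated pharmacologically. The peak-minus-baseline FLIPR calcium signal gives % inhibition and a 4-parameter-logistic IC50.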

hP2X3 = target: T2, hP2X3 (Homo sapiens, UniProt P56373); experiment: Calcium uptake assay (P2X antagonist assay), P2X3 homomer; format: cell-based; details: hP2X3
T2 construct: expressed in transfected cells; host or cells: e.g. HEK293 or 1321N1
T2 sequence (P56373 1-397): T1 sequence (P56373 1-397)
Outline: as §1

[1] = Ca influx (calcium uptake assay), read-out: IC50 hP2X2/3H
[2] = Ca influx (calcium uptake assay), read-out: IC50 hP2X3
[3] = calcium uptake assay, read-out: IC50 hP2X2/3H (nM), Ca Influx
[4] = calcium uptake assay, read-out: IC50 hP2X3 (nM), Ca Influx

Row | Structure (SMILES) | IC50 (hP2X2/3H; [1]) | IC50 (hP2X3; [2]) | IC50 (hP2X2/3H; [3]) | IC50 (hP2X3; [4])
1 | Cc1ccc(-c2cc(C(=O)NCc3ccn4ccnc4c3)cc(C(=O)N3CCCC3)c2)cc1 [Compound 50] |  |  | < 100 nM | < 100 nM
2 | COC1CCN(CC(O)c2cc(C(=O)NCc3ccc(C)nc3)cc(-c3ccc(C)cc3)c2)CC1 (stereo not drawn) [Compound 389] | 100 to 500 nM | < 100 nM |  | 
3 | Cc1ccc(-c2cc(C(=O)N[C@H](C)c3ccc(C(F)(F)F)nc3)cc(C(=O)N3CC(O)C3)c2)cc1 [Compound 85] |  |  | < 100 nM | < 100 nM
4 | Cc1ccc(-c2cc(C(=O)NCc3ccc(C)nc3)cc(C(O)CN3CCCC3)c2)cc1 (stereo not drawn) [Compound 230] | 100 to 500 nM | < 100 nM |  | 
5 | COc1ccc(CNC(=O)c2cc(-c3ccc(C)cc3)cc(S(C)(=O)=O)c2)cn1 [Compound 144] |  |  | < 100 nM | 100 to 500 nM
6 | Cc1ccc(-c2cc(C(=O)NCc3ccc(C)nc3)cc(C(O)c3ccccc3)c2)cc1 (stereo not drawn) [Compound 228] | 100 to 500 nM | 100 to 500 nM |  | 
7 | Cc1ccc(-c2cc(C(=O)N[C@H](C)c3cnc(C)nc3)cc(C(O)c3ccccn3)c2)nc1 (stereo partly drawn) [Compound 286] | < 100 nM | < 100 nM |  | 
8 | Cc1ccc(-c2cc(C(=O)NCc3ccc(C)nc3)cc(C(=O)N(C)CC(F)(F)F)c2)cc1 [Compound 168, N3,4′-Dimethyl-N5-((6-methylpyridin-3-yl)methyl)-N3-(2,2,2-trifluoroethyl)biphenyl-3,5-dicarboxamide] |  |  | < 100 nM | < 100 nM
9 | Cc1ccc(-c2cc(C(=O)N[C@H](C)c3ccc(C(F)(F)F)nc3)cc(C(=O)N3CCCC3)c2)cc1 [Compound 46] |  |  | < 100 nM | 100 to 500 nM
10 | Cc1ccc(-c2cc(C#N)cc(C(=O)NCc3cnc(C)nc3)c2)cc1 [Compound 154] |  |  | 100 to 500 nM | 100 to 500 nM
11 | [2H]C([2H])([2H])c1ccc(-c2cc(C(=O)NCc3ccc(C)nc3)cc(C(=O)N3CCCC3)c2)cc1 [Compound 203, 4′-Methyl-d3-N-((6-methylpyridin-3-yl)methyl)-5-(pyrrolidine-1-carbonyl)biphenyl-3-carboxamide] | < 100 nM | < 100 nM |  | 
12 | Cc1ccc(-c2cc(C(=O)N[C@H](C)c3cnc(C)nc3)cc(S(C)(=O)=O)c2)cc1 [Compound 116, (R)-4′-Methyl-N-(1-(2-methylpyrimidin-5-yl)ethyl)-5-(methylsulfonyl)biphenyl-3-carboxamide] |  |  | < 100 nM | < 100 nM
13 | Cc1ccc(-c2cc(C(=O)N[C@H](C)c3cnc(C)nc3)cc(C(O)c3nccs3)c2)cc1 (stereo partly drawn) [Compound 283] | < 100 nM | < 100 nM |  | 

More lines, now with the values ahead:

Row | IC50 (hP2X2/3H; [1]) | IC50 (hP2X3; [2]) | IC50 (hP2X2/3H; [3]) | IC50 (hP2X3; [4]) | Structure (SMILES)
14 | < 100 nM | < 100 nM |  |  | Cc1ccc(-c2cc(Oc3ccccn3)cc(C(=O)N[C@H](C)c3ccc(C)nc3)c2)c(C#N)c1 [Compound 259]
15 | < 100 nM | 100 to 500 nM |  |  | Cc1ccc(-c2cc(OCC3CCOC3)cc(C(=O)N[C@H](C)c3ccc(C)nc3)c2)cc1 (stereo partly drawn) [Compound 309]
16 | < 100 nM | < 100 nM |  |  | Cc1ccc(-c2cc(OC3CCOC3)cc(C(=O)N[C@H](C)c3ccc(C)nc3)c2)cc1 (stereo partly drawn) [Compound 308, 4′-Methyl-N—((R)-1-(6-methylpyridin-3-yl)ethyl)-5-(tetrahydrofuran-3-yloxy)biphenyl-3-carboxamide]
17 | < 100 nM | < 100 nM |  |  | Cc1ccc(-c2cc(Oc3ncc(CO)s3)cc(C(=O)N[C@H](C)c3ccc(C)nc3)c2)nc1 [Compound 372]
18 | < 100 nM | < 100 nM |  |  | Cc1ccc(-c2cc(OCC3CCCO3)cc(C(=O)N[C@H](C)c3ccc(C)nc3)c2)nc1 (stereo partly drawn) [Compound 335]
19 |  |  | 100 to 500 nM | < 100 nM | Cc1ccc(-c2cc(C(=O)N[C@H](C)c3ccc(C(F)(F)F)nc3)cc(S(C)(=O)=O)c2)nc1 [Compound 181, (R)-3-(5-Methylpyridin-2-yl)-5-(methylsulfonyl)-N-(1-(6-(trifluoromethyl)pyridin-3-yl)ethyl)benzamide]
20 | < 100 nM | < 100 nM |  |  | Cc1ccc(-c2cc(C(=O)N[C@H](C)c3ccc(C)nc3)cc(C(O)c3ccccc3)c2)nc1 (stereo partly drawn) [Compound 276]
21 |  |  | < 100 nM | < 100 nM | Cc1ccc(-c2cc(C(=O)N[C@H](C)c3ccc(C)nc3)cc(C(=O)N3CC[C@@H](O)C3)c2)nc1 [Compound 178]
